Results taken from PubChem BioAssay AID248 (DTP/NCI, 2004).
Values joined by “and” are separate entries in the source; they are usually repeats but may differ in a detail not shown here. Equal entries are not always repeated. Inconclusive results and toxic doses are left out. No stated cut-off is given here; in the data, active means T/C of 150% or more; inactive means T/C below 125%.

Tested on: L1210 leukemia ip in BDF1 mice, survival T/C
Assay: NCI In Vivo Anticancer Drug Screen. Data for tumor model L1210 Leukemia (intraperitoneal) in B6D2F1 (BDF1) mice
Details: endpoint: mean survival time, higher = longer survival
Method in brief: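 Tumor cells were implanted, animals were treated, and survival was followed. The result divides the treated measurement by the vehicle-control measurement.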

[1] = dose: 100.0 mg/kg/injection, schedule: Q01DX009 (ip), vehicle: saline
[2] = dose: 200.0 mg/kg/injection, schedule: Q01DX009 (ip), vehicle: saline
[3] = dose: 400.0 mg/kg/injection, schedule: Q01DX009 (ip), vehicle: saline
[4] = dose: 100.0 mg/kg/injection, schedule: Q01DX009 (ip), vehicle: saline with Tween-80
[5] = dose: 200.0 mg/kg/injection, schedule: Q01DX009 (ip), vehicle: saline with Tween-80
[6] = dose: 400.0 mg/kg/injection, schedule: Q01DX009 (ip), vehicle: saline with Tween-80
[7] = dose: 100.0 mg/kg/injection, schedule: Q01DX009 (ip), vehicle: Klucel (hydroxypropylcellulose) (HPC)
[8] = dose: 200.0 mg/kg/injection, schedule: Q01DX009 (ip), vehicle: Klucel (hydroxypropylcellulose) (HPC)
[9] = dose: 400.0 mg/kg/injection, schedule: Q01DX009 (ip), vehicle: Klucel (hydroxypropylcellulose) (HPC)
[10] = dose: 100.0 mg/kg/injection, schedule: Q01DX001 (ip), vehicle: saline
[11] = dose: 200.0 mg/kg/injection, schedule: Q01DX001 (ip), vehicle: saline
[12] = dose: 400.0 mg/kg/injection, schedule: Q01DX001 (ip), vehicle: saline
[13] = dose: 100.0 mg/kg/injection, schedule: Q04DX003 (ip), vehicle: Klucel (hydroxypropylcellulose) (HPC)
[14] = dose: 200.0 mg/kg/injection, schedule: Q04DX003 (ip), vehicle: Klucel (hydroxypropylcellulose) (HPC)
[15] = dose: 400.0 mg/kg/injection, schedule: Q04DX003 (ip), vehicle: Klucel (hydroxypropylcellulose) (HPC)
[16] = dose: 50.0 mg/kg/injection, schedule: Q01DX009 (ip), vehicle: saline with Tween-80
[17] = dose: 100.0 mg/kg/injection, schedule: Q01DX001 (ip), vehicle: saline with Tween-80
[18] = dose: 200.0 mg/kg/injection, schedule: Q01DX001 (ip), vehicle: saline with Tween-80
[19] = dose: 400.0 mg/kg/injection, schedule: Q01DX001 (ip), vehicle: saline with Tween-80
[20] = dose: 100.0 mg/kg/injection, schedule: Q01DX001 (ip), vehicle: Klucel (hydroxypropylcellulose) (HPC)
[21] = dose: 200.0 mg/kg/injection, schedule: Q01DX001 (ip), vehicle: Klucel (hydroxypropylcellulose) (HPC)
[22] = dose: 400.0 mg/kg/injection, schedule: Q01DX001 (ip), vehicle: Klucel (hydroxypropylcellulose) (HPC)

Measured: T/C

CNc1nc2ncn(C)c2c(=O)[nH]1
inactive: [1] 97 % of control | [2] 98 % of control | [3] 98 % of control

COc1ccc(-c2c(-c3ccccc3)oc3ccc4ccccc4c23)cc1
inactive: [4] 87 % of control | [5] 93 % of control | [6] 92 % of control

COc1ccc(C(=O)N/N=C/c2ccc(C)cc2)cc1
inactive: [7] 102 % of control | [8] 102 % of control | [9] 105 % of control

CCC[N+]12CC=C(CO)C1C(O)CC2 (stereo unspecified)
inactive: [10] 103 % of control | [11] 100 % of control | [12] 110 % of control

CCCN(CCC)N=Nc1ccccc1-c1nc(N)c2ccccc2n1
inactive: [13] 106 % of control | [14] 98 % of control | [15] 101 % of control

O=C(O)C1C(c2ccccc2)=C1c1ccc(Br)cc1 (stereo unspecified)
inactive: [7] 100 % of control | [13] 93 % of control | [8] 118 % of control | [14] 102 % of control | [9] 101 % of control | [15] 88 % of control

CC[n+]1ccc(Nc2ccc(NC(=O)c3ccc([N+](=O)[O-])cc3)cc2)cc1
inactive: dose: 12.5 mg/kg/injection, schedule: Q01DX009 (ip), vehicle: saline with Tween-80 100 % of control | dose: 25.0 mg/kg/injection, schedule: Q01DX009 (ip), vehicle: saline with Tween-80 91 % of control | [16] 88 % of control | [17] 100 % of control | [4] 92 % of control | [18] 110 % of control | [19] 98 % of control

Cc1nc(Cl)c(Cl)[nH]1
inactive: [4] 97 % of control | [5] 111 % of control

Cc1cccc(OCC(O)CN(Cc2ccsc2)c2ccccn2)c1 (stereo unspecified)
inactive: dose: 100.0 mg/kg/injection, schedule: Q04DX002 (ip), vehicle: Klucel (hydroxypropylcellulose) (HPC) 94 % of control | dose: 200.0 mg/kg/injection, schedule: Q04DX002 (ip), vehicle: Klucel (hydroxypropylcellulose) (HPC) 106 % of control

NC(N)=NC(CC(=O)O)C(=O)O (stereo unspecified)
inactive: dose: 100.0 mg/kg/injection, schedule: Q01DX Z (ip), vehicle: methylcellulose (MC) 92 % of control | dose: 200.0 mg/kg/injection, schedule: Q01DX Z (ip), vehicle: methylcellulose (MC) 92 % of control

Cc1ccc(C)c(NC(=O)NCCN(C)c2ccccc2)c1
inactive: [17] 96 % of control | [4] 87 % of control | dose: 100.0 mg/kg/injection, schedule: Q04DX002 (ip), vehicle: saline with Tween-80 89 % of control and 91 % of control | [18] 93 % of control | [5] 89 % of control | dose: 200.0 mg/kg/injection, schedule: Q04DX002 (ip), vehicle: saline with Tween-80 89 % of control and 91 % of control | [19] 92 % of control | [6] 101 % of control | dose: 400.0 mg/kg/injection, schedule: Q04DX002 (ip), vehicle: saline with Tween-80 89 % of control and 91 % of control

Cc1cccc(N2CCN(C(=S)c3ccccc3)CC2)c1
inactive: [10] 93 % of control | [11] 93 % of control | [12] 98 % of control

CC(=O)Nc1nc(Cl)c(N)c(SCc2ccccc2)n1
inactive: [20] 98 % of control | [13] 91 % of control | [21] 98 % of control | [14] 92 % of control | [22] 98 % of control | [15] 92 % of control

Nc1nc(N)c2nc(COc3ccccc3)cnc2n1
inactive: dose: 20.0 mg/kg/injection, schedule: Q01DX009 (ip), vehicle: Klucel (hydroxypropylcellulose) (HPC) 98 % of control | dose: 40.0 mg/kg/injection, schedule: Q01DX009 (ip), vehicle: Klucel (hydroxypropylcellulose) (HPC) 107 % of control | dose: 80.0 mg/kg/injection, schedule: Q01DX009 (ip), vehicle: Klucel (hydroxypropylcellulose) (HPC) 107 % of control

Cc1ccc2c(c1)OC(=O)CC2C (stereo unspecified)
inactive: dose: 100.0 mg/kg/injection, schedule: Q01DX001 (ip), vehicle: carboxymethylcellulose (CMC) 100 % of control | dose: 200.0 mg/kg/injection, schedule: Q01DX001 (ip), vehicle: carboxymethylcellulose (CMC) 96 % of control | dose: 400.0 mg/kg/injection, schedule: Q01DX001 (ip), vehicle: carboxymethylcellulose (CMC) 96 % of control

NC(Cc1c[nH]c2ccccc12)C(=O)O (stereo unspecified)
inactive: [17] 95 % of control | [1] 100 % of control | [18] 98 % of control | [2] 94 % of control | dose: 300.0 mg/kg/injection, schedule: Q01DX001 (ip), vehicle: saline with Tween-80 92 % of control | [3] 94 % of control | dose: 800.0 mg/kg/injection, schedule: Q01DX009 (ip), vehicle: saline 94 % of control

CC1(C)c2ccccc2C(=O)/C(=C/c2ccccc2)C1NC1CCCCC1 (stereo unspecified)
inactive: [20] 95 % of control | [7] 102 % of control | [21] 93 % of control | [8] 96 % of control | [22] 92 % of control | [9] 106 % of control

Cc1cc(C)c2nc(Cl)cc(C)c2c1
inactive: [10] 91 % of control | [11] 91 % of control | [12] 104 % of control

C1CC2CCC(N3CCOCC3)C(C1)O2 (stereo unspecified)
inactive: [16] 102 % of control | [4] 102 % of control | [5] 102 % of control

O=[N+]([O-])/C=C/C(Cl)(Cl)Cl
inactive: dose: 6.25 mg/kg/injection, schedule: Q01DX009 (ip), vehicle: Klucel (hydroxypropylcellulose) (HPC) 101 % of control | dose: 12.5 mg/kg/injection, schedule: Q01DX009 (ip), vehicle: Klucel (hydroxypropylcellulose) (HPC) 108 % of control | dose: 25.0 mg/kg/injection, schedule: Q01DX009 (ip), vehicle: Klucel (hydroxypropylcellulose) (HPC) 97 % of control | dose: 50.0 mg/kg/injection, schedule: Q01DX009 (ip), vehicle: Klucel (hydroxypropylcellulose) (HPC) 95 % of control

CN1C(=O)C(C)(C)C(=O)c2ccccc21
inactive: dose: 100.0 mg/kg/injection, schedule: Q04DX002 (ip), vehicle: other 90 % of control | dose: 200.0 mg/kg/injection, schedule: Q04DX002 (ip), vehicle: other 100 % of control | dose: 400.0 mg/kg/injection, schedule: Q04DX002 (ip), vehicle: other 97 % of control

CCN=C(NCC)c1ccc(NC(=O)Nc2ccc(NC(=O)Nc3ccc(C(=NCC)NCC)cc3)cc2)cc1
inactive: dose: 0.87 mg/kg/injection, schedule: Q01DX Z (ip), vehicle: water 100 % of control | dose: 1.75 mg/kg/injection, schedule: Q01DX Z (ip), vehicle: water 100 % of control | dose: 3.5 mg/kg/injection, schedule: Q01DX Z (ip), vehicle: water 97 % of control | dose: 7.0 mg/kg/injection, schedule: Q01DX Z (ip), vehicle: water 103 % of control

C(=N/N=C(N/N=C/c1ccccc1)N/N=C/c1ccccc1)/c1ccccc1
inactive: dose: 15.0 mg/kg/injection, schedule: Q01DX Z (ip), vehicle: carboxymethylcellulose (CMC) 95 % of control | dose: 30.0 mg/kg/injection, schedule: Q01DX Z (ip), vehicle: carboxymethylcellulose (CMC) 95 % of control | dose: 60.0 mg/kg/injection, schedule: Q01DX Z (ip), vehicle: carboxymethylcellulose (CMC) 92 % of control | dose: 120.0 mg/kg/injection, schedule: Q01DX Z (ip), vehicle: carboxymethylcellulose (CMC) 92 % of control | dose: 188.0 mg/kg/injection, schedule: Q01DX Z (oral), vehicle: carboxymethylcellulose (CMC) 95 % of control | dose: 375.0 mg/kg/injection, schedule: Q01DX Z (oral), vehicle: carboxymethylcellulose (CMC) 105 % of control | dose: 750.0 mg/kg/injection, schedule: Q01DX Z (oral), vehicle: carboxymethylcellulose (CMC) 110 % of control | dose: 1500.0 mg/kg/injection, schedule: Q01DX Z (oral), vehicle: carboxymethylcellulose (CMC) 100 % of control
